Laboratory results reported in US12162819B2, “Ionizable lipid compounds” (Beijing Jitai Pharmaceutical Technology Co., Ltd., priority 2022, dated 2024).

Tests used:
[1] = Encapsulation efficiency of lipid nanoparticles, Quant-It RiboGreen RNA Assay; format: physicochemical; details: lipid nanoparticle with the cationic lipid, luciferase mRNA
Description: (§1) Lipid nanoparticles were prepared by (1) dissolving and mixing ionizable lipid compounds, cholesterol, phospholipids and polyethylene glycolated lipids in ethanol at (molar percentages) 50%, 38.5%, 10% and 1.5%, respectively; (2) dissolving the mRNA active ingredient in 25 mM sodium acetate solution (pH=4.5); (3) using an automated high-throughput microfluidic system to mix the organic phase containing the lipid mixture and the aqueous phase containing the mRNA component in the flow ratio range of 1:1 to 1:4 at a mixing speed of 10 mL/min to 18 mL/min; (4) the prepared lipid nanoparticles (N/P ratio of 6) were diluted with phosphate buffer solution and the nanoparticle solutions were ultrafiltered to the original preparation volume using ultrafiltration tubes (purchased from Millipore) with a cut-off molecular weight of 30 kDa; and (5) the obtained nanoparticles were filtered through a sterile 0.2 μm filter membrane and then stored in a sealed glass vial at low temperature.
(§2) The particle size and particle size dispersity index (PDI) of the prepared lipid nanoparticles were measured using a Zetasizer Pro (purchased from Malvern Instruments Ltd) and a DynaPro NanoStar (purchased from Wyatt) dynamic light scattering instrument. The degree of RNA encapsulation by lipid nanoparticles was characterized by the Encapsulation Efficiency %, which reflects the degree of binding of lipid nanoparticles to RNA fragments. This parameter was measured by the method of Quant-It™ RiboGreen RNA Assay (purchased from Invitrogen). Lipid nanoparticle samples were diluted in TE buffer (10 mM Tris-HCl, 1 mM EDTA, pH=7.5). A portion of the sample solution was removed, to which 0.5% Triton (Triton X-100) was added, and then allowed to stand at 37° C. for 30 minutes. Immediately after the addition of RIBOGREEN® reaction solution, the fluorescence values were read on a Varioskan LUX multifunctional microplate reader (purchased from Thermofisher) at 485 nm for absorption and 528 nm for emission to give the encapsulation efficiency values.

[2] = Particle size and PDI of lipid nanoparticles by dynamic light scattering; format: physicochemical; details: lipid nanoparticle with the cationic lipid, cholesterol, DSPC, DMG-PEG2000 (50/38.5/10/1.5 mol%), luciferase mRNA, N/P 6
Description: as §1, §2

Compound | Encapsulation efficiency (%) [1] [%] | Particle size (nm) [2] [nm] | Particle size dispersity (PDI) [2]
CCCCCCCC#CCOC(=O)C(C)(C)CCCCCC(CCCCCC(C)(C)C(=O)OCCCC(CCCCC)CCCCC)OC(=O)CCCN(C)C (stereo not drawn) [Compound 115] | 91.76 | 77.12 | 0.04
CCCCCCCCCCOC(=O)C(C)(C)CCCCCC(CCCCCC(C)(C)C(=O)OCCCCCCCCCC)OC(=O)CCN1CCOCC1 [Compound 90] | 83.21 | 18.17 | 0.05
CCCCCCCCCCOC(=O)C(C)(C)CCCCCC(CCCCCC(C)(C)C(=O)OCCCCCCCCCC)OC(=O)CN1CCOCC1 [Compound 91] | 102.99 | 32.61 | 0.05
CCCCCCCCCOC(=O)C(C)(C)CCCCCCC(CCCCCCC(C)(C)C(=O)OCC(CCCCC)CCCCCCC)OC(=O)CCCN(C)C (stereo not drawn) [Compound 125] | 89.45 | 95.69 | 0.07
CCCCCCCCCSC(=O)C(C)(C)CCCCCC(CCCCCC(C)(C)C(=O)OCC(CCCCC)CCCCCCC)OC(=O)CC1CCN(C)CC1 (stereo not drawn) [Compound 112] | 94.41 | 121.05 | 0.08
CCCCCCCCCSC(=O)C(C)(C)CCCCCC(CCCCCC(C)(C)C(=O)SCCCCCCCCC)OC(=O)C1CCN(C(C)C)CC1 [Compound 107] | 83.74 | 99.54 | 0.05
CCCCCCC/C=C\COC(=O)CC(C)(C)CCCCC(CCCCC(C)(C)CC(=O)OCC(CCCCC)CCCCCCC)OC(=O)CCCN(C)C (stereo not drawn) [Compound 98] | 93.28 | 107.87 | 0.13
CCCCCCCCOC(=O)C(C)(C)CCCCCC(CCCCCC(C)(C)C(=O)OCCCCCCCC)OC(=O)CCCN(C)C [Compound 19] | 67.96 | 135.15 | 0.19
CCCCCC/C=C\CCOC(=O)C(C)(C)CCCCCC(CCCCCC(C)(C)C(=O)OCC/C=C\CCCCCC)OC(=O)CCCN(C)C [Compound 27] | 88.99 | 105.70 | 0.05
CCCCCCCCCCCCNC(=O)C(C)(C)CCCCCC(CCCCCC(C)(C)C(=O)NCCCCCCCCCCCC)OC(=O)CCN(C)C [Compound 10] | 53.83 | 118.59 | 0.07
CCCCCCCCCOC(=O)CCCCCCC(CCCCCCC(=O)OCC(CCCCC)CCCCCCC)OC(=O)CCCN(C)C (stereo not drawn) [Compound D2, reference compound] | 79.63 | 245.33 | 0.20
CCCCCCCCCCOC(=O)C(C)(C)CCCCCC(CCCCCC(C)(C)C(=O)OCCCCCCCCCC)OC(=O)CCCN(C)C [Compound 18] | 87.86 | 161.29 | 0.05
CCCCCCC/C=C\COC(=O)C(C)(C)CCCCCC(CCCCCC(C)(C)C(=O)OC/C=C\CCCCCCC)OC(=O)CCCN(C)C [Compound 26] | 81.29 | 96.69 | 0.05
CCCCCCCCCOC(=O)C(C)(C)CCCCCC(CCCCCC(C)(C)C(=O)OCCCCCCCCC)OC(=O)C1CCN(C)CC1 [Compound 102] | 90.03 | 102.18 | 0.03
CC/C=C\CCCCCOC(=O)C(C)(C)CCCCCC(CCCCCC(C)(C)C(=O)OCCCCC/C=C\CC)OC(=O)CCN(C)C [Compound 7] | 69.51 | 203.67 | 0.04
CCCCCCCCCCSC(=O)C(C)(C)CCCCCC(CCCCCC(C)(C)C(=O)SCCCCCCCCCC)OC(=O)CCN(C)C [Compound 33] | 88.67 | 105.84 | 0.04
CCCCCCCCCCOC(=O)C(C)(C)CCCCCC(CCCCCC(C)(C)C(=O)OCCCCCCCCCC)OC(=O)CN(C)C [Compound 17] | 30.95 | 81.43 | 0.12
CCCCCCCCC(CCCCCCCC)NC(=O)C(C)(C)CCCCCC(CCCCCC(C)(C)C(=O)NC(CCCCCCCC)CCCCCCCC)OC(=O)CCN(C)C [Compound 11] | 95.61 | 46.49 | 0.03

Compound | Encapsulation efficiency (%) [1] [%] | Particle size (nm) [2] [nm] | Particle size dispersity (PDI) [2]
CCCCCCC#CCCOC(=O)C(C)(C)CCCCCC(CCCCCC(C)(C)C(=O)OCCC#CCCCCCC)OC(=O)CCCN(C)C [Compound 24] | 60.98 | 133.72 | 0.04
CCCCC(CC#CCOC(=O)C(C)(C)CCCCCC(CCCCCC(C)(C)C(=O)OCC#CCC(CCCC)CCCC)OC(=O)CCCN(C)C)CCCC [Compound 117] | 95.29 | 127.31 | 0.06
CCCCCCCC#CCOC(=O)C(C)(C)CCCCCC(CCCCCC(C)(C)C(=O)OCC#CCCCCCCC)OC(=O)CCCN(C)C [Compound 23] | 70.22 | 151.35 | 0.07
CCCCCCCCCCOC(=O)C(C)(C)CCCCCC(CCCCCC(C)(C)C(=O)OCCCCCCCCCC)OC(=O)CCN1CCCC1 [Compound 92] | 91.66 | 107.56 | 0.05
CCCCCCCCCOC(=O)C(C)(C)CCCCC(CCCCC(C)(C)C(=O)OCC(CCCCC)CCCCCCC)OC(=O)CCCN(C)C (stereo not drawn) [Compound 122] | 91.76 | 96.72 | 0.07
CCCCCCCCCCOC(=O)C(C)(C)CCCCCC(CCCCCC(C)(C)C(=O)OCCCCCCCCCC)OC(=O)CCN(C)C [Compound 1] | 91.54 | 80.07 | 0.06
CCCCCCCCCCSC(=O)C(C)(C)CCCCCC(CCCCCC(C)(C)C(=O)OCCCCCCCCC)OC(=O)CCCN(C)C (stereo not drawn) [Compound 40] | 97.06 | 83.90 | 0.05
CCCCCCC(CCCCCC)CCOC(=O)CCC(C)(C)CCCC(CCCC(C)(C)CCC(=O)OCCC(CCCCCC)CCCCCC)OC(=O)CCCN(C)C [Compound 128] | 79.88 | 83.10 | 0.05
CCCCCCCCCOC(=O)CCCCCCC(CCCCCCC(=O)OCCCCCCCCC)OC(=O)CCCN(C)C [Compound D1, reference compound] | 97.08 | 131.2 | 0.18
CCCCCCC#CCOC(=O)C(C)(C)CCCCCC(CCCCCC(C)(C)C(=O)OCCCCCCCCC)OC(=O)CCCN(C)C (stereo not drawn) [Compound 42] | 71.95 | 152.04 | 0.07
CCCCCCCCCCSC(=O)C(C)(C)CCCCCC(CCCCCC(C)(C)C(=O)SCCCCCCCCCC)OC(=O)CCCCCN(C)C [Compound 36] | 97.52 | 88.33 | 0.07
CCCCCCCCCN(CCCCCCCCC)C(=O)C(C)(C)CCCCCC(CCCCCC(C)(C)C(=O)N(CCCCCCCCC)CCCCCCCCC)OC(=O)CCN(C)C [Compound 12] | 85.02 | 89.34 | 0.07
CCCCCCCCCCSC(=O)C(C)(C)CCCCCC(CCCCCC(C)(C)C(=O)SCCCCCCCCCC)OC(=O)C1CCN(C)CC1 [Compound 104] | 85.54 | 71.14 | 0.06
CCCCCCCCCCOC(=O)C(C)(C)CCCCC(CCCCC(C)(C)C(=O)OCC(CCCCC)CCCCCCC)OC(=O)CCCN(C)C (stereo not drawn) [Compound 123] | 92.27 | 84.98 | 0.05
CCCCCCCCCCSC(=O)C(C)(C)CCCCCC(CCCCCC(C)(C)C(=O)SCCCCCCCCCC)OC(=O)C1CCN(C(C)C)CC1 [Compound 105] | 94.67 | 78.80 | 0.05
CCCCC#CCCCCOC(=O)C(C)(C)CCCCCC(CCCCCC(C)(C)C(=O)OCCCCC#CCCCC)OC(=O)CCCN(C)C [Compound 25] | 32.43 | 236.90 | 0.06
CCCCCCCCOC(=O)C(C)(C)CCCCCC(CCCCCC(C)(C)C(=O)OCCCCCCCC)OC(=O)CCN(C)C [Compound 2] | 79.14 | 229.35 | 0.03
